Measurements from patent US20250353816A1, “QUINOLINES AS MODULATORS OF POLRMT” (Pretzel Therapeutics, Inc., priority 2024, published 2025).

What follows are molecules tested against POLRMT (Homo sapiens (Human), UniProt O00411) (assay: homogeneous TR-FRET assay of mitochondrial transcription (inhibition of POLRMT)). Details: 7.5 nM POLRMT, 15 nM TFB2M, 30 nM TFAM, 60 minutes at 37° C.
Assay type: biochemical
Description: The inhibitory activity of the compounds of the present invention against POLRMT were determined by assays based on Bergbrede, T., et al., “An adaptable high-throughput technology enabling the identification of specific transcription modulators,” SLAC Discov., 22, 378-386 (2017).
The ability of some compounds of the present invention to inhibit POLRMT were determined in a homogeneous TR-FRET Assay using high-throughput screening in a 384-well plate format. This method is used to monitor the activity of mitochondrial transcription through measurement of its product, a 407 bp long RNA transcript. Detection of the product is facilitated by hybridization of two DNA-oligonucleotide probes to specific and adjacent sequences within the RNA product sequence. Upon annealing of the probes, two fluorophores are coupled directly to an acceptor nucleotide probe (ATTO647, 5′), or introduced via a coupled streptavidin with a biotinylated donor nucleotide probe (Europium cryptate) that is brought into sufficient proximity to serve as a fluorescence-donor-acceptor pair. Thus, a FRET signal at 665 nm is generated upon excitation at 340 nm.
Proteins used as transcription factors (POLRMT: NP_005026.3, TFAM: NP_003192.1, TFB2M: NP_071761.1) are diluted from their stocks to working concentrations of 1 μM, 20 μM and 4 μM respectively, in a dilution buffer containing 20 mM Tris-HCl (pH 8.0), 200 mM NaCl, 10% (v/v) glycerol, 1 mM Dithiothreitol (DTT), 0.5 mM EDTA.
DNA template is a pUC18 plasmid with the mitochondrial light strand promotor sequence (1-477) cloned between HindIII and BamHI sites. The DNA template is restriction linearized proximal to the promotor 3′-end (pUC-LSP).
The reaction mixture (10 uL) containing 7.5 nM POLRMT, 15 nM of TFB2M, 30 nM of TFAM, 0.5 nM of DNA template and 500 μM nucleotide triphosphate mix (NTPs) in a reaction buffer (containing 10 mM Tris-HCl (pH 7.5), 10 mM MgCl2, 40 mM NaCl, 10 mM DTT, 0.005% (w/v) Tween-20, 160 units/ml Rnase inhibitor and 0.1 mg/mL BSA) are dispensed to compounds in microplates, using a Thermo Multidrop® dispenser, and incubated at 37° C. in a VWR INCU-Line incubator for 60 minutes after mixing. No nucleotide triphosphate mix is added to negative control samples. Microplates with compounds to be tested in the assay are prepared from 10 mM compound stocks in 100% DMSO, equal amounts of DMSO without any compound are added to positive control and negative control samples.
During the incubation, a mix of the detection reagents is prepared in a buffer such that the enzymatic reaction is terminated due to chelating of Mg-ions and increased ionic strength, containing 50 mM Tris-HCl (pH 7.5), 700 mM NaCl, 20 mM EDTA, and 0.01% (w/v) Tween-20. Europium-streptavidin is pre-incubated with a 200-fold molar excess of a random sequence oligonucleotide to block unspecific binding of oligo, for two hours at ambient temperature in the dark. Afterwards, the blocked Europium-streptavidin is kept on ice until use.
At the end of the enzymatic reaction time, 5 μL detection oligo mix in the detection buffer is added, and assay plates are mixed and kept at ambient temperature for one hour, protected from light. The concentration of the Acceptor nucleotide oligo (e.g., ATTO647N-5′-[…]-3′ (SEQ ID NO: 1)) and Donor nucleotide oligo (e.g., bio-5′-AACACATCTCT(-bio)GCCAAACCCCA-bio-3′ (SEQ ID NO: 2)) in each assay well is 1 nM, and 3 nM, respectively.
After incubation with oligo mix, 5 μL of pre-blocked Europium-streptavidin reagent is dispensed to each assay well, assay plates are again mixed and kept at ambient temperature for one hour, protected from light.
The generated signal is measured with BMG Pherastar microtiter plate reader with a TRF light unit, using excitation at 340 nm, an integration time of 200 μs, and a delay time of […], before detection at 620 nm and 665 nm. The ratio of donor- and acceptor-fluorescence is used as a measure of the generated transcript product (i.e. enzymatic activity).

Sequence of POLRMT (O00411 42-1230): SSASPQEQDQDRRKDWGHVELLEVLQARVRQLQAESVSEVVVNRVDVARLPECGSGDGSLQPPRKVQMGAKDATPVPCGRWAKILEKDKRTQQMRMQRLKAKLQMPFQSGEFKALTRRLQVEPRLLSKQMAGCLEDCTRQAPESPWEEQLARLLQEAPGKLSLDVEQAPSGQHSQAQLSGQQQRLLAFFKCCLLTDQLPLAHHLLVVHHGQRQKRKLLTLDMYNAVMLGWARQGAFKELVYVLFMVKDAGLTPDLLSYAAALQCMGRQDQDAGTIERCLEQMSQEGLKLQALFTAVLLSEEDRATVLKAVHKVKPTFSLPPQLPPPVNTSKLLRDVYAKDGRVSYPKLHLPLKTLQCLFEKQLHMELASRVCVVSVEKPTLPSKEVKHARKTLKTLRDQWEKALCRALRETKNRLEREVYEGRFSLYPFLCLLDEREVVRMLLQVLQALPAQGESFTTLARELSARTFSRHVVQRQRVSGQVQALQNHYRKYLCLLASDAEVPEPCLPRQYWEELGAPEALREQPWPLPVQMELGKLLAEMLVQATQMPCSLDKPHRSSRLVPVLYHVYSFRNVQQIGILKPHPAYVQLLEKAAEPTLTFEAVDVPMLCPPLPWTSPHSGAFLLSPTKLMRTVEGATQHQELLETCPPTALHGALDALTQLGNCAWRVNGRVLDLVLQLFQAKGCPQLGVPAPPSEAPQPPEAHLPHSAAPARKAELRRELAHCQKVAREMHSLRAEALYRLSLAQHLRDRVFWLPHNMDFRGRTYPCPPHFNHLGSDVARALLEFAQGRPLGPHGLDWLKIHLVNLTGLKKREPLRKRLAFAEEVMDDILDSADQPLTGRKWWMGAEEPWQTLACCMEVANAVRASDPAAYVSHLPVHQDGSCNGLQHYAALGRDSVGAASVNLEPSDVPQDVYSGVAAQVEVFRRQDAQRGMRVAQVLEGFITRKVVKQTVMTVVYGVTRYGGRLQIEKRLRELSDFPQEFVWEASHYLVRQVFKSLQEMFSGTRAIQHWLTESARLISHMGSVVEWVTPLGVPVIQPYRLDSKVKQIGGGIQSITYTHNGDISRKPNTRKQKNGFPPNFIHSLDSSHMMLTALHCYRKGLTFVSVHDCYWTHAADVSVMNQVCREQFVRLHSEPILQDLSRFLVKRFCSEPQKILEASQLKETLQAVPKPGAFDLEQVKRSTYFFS

Row | IC50 [µM] | SMILES
1 | > 100 | Cc1ccccc1-c1ccnc2cc(C(C)OCC(=O)N(C)C)ccc12 (stereo not shown) [Example 55, N,N-dimethyl-2-(1-(4-(o-tolyl)quinolin-7-yl)ethoxy)acetamide]
2 | 91 | Cc1ccccc1-c1ccnc2cc(CC(=O)NCC3CC3)ccc12 [Example 41, N-(cyclopropylmethyl)-2-(4-(o-tolyl)quinolin-7-yl)acetamide]
3 | 70 | Cc1ccccc1-c1ccnc2cc(CC(C)C(=O)N3CCCCC3)ccc12 (single isomer, unassigned) [Example 35, 2-methyl-1-(piperidin-1-yl)-3-(4-(o-tolyl)quinolin-7-yl)propan-1-one]
4 | 74 | Cc1ccccc1-c1ccnc2cc(C#N)ccc12 [Example 33, 4-(o-tolyl)quinoline-7-carbonitrile]
5 | 10 | Cc1ccccc1-c1ccnc2cc(CCO)ccc12 [Example 17, 2-(4-(o-tolyl)quinolin-7-yl)ethan-1-ol]
6 | 97 | Cc1ccccc1-c1ccnc2cc(CC(=O)O)ccc12 [Example 29, 2-(4-(o-tolyl)quinolin-7-yl)acetic acid]
7 | > 100 | Cc1ccccc1-c1ccnc2cc(CN3CCOCC3)ccc12 [Example 20, 4-((4-(o-tolyl)quinolin-7-yl)methyl)morpholine]
8 | > 100 | CNC(=O)COC(C)c1ccc2c(-c3ccccc3C)ccnc2c1 (stereo not shown) [Example 57, N-methyl-2-(1-(4-(o-tolyl)quinolin-7-yl)ethoxy)acetamide]
9 | 36 | Cc1ccccc1-c1ccnc2cc(C(C)O)ccc12 (stereo not shown) [Example 18, 1-(4-(o-tolyl)quinolin-7-yl)ethan-1-ol]
10 | 10 | CC(=O)Nc1ccc2c(-c3ccccc3C)ccnc2c1 [Example 11, N-(4-(o-tolyl)quinolin-7-yl)acetamide]
11 | > 100 | Cc1ccccc1-c1ccnc2cc(CN(C)S(=O)(=O)c3ccccc3)ccc12 [Example 23, N-methyl-N-((4-(o-tolyl)quinolin-7-yl)methyl)benzenesulfonamide]
12 | 59 | COC(=O)NCc1ccc2c(-c3ccccc3C)ccnc2c1 [Example 15, methyl ((4-(o-tolyl)quinolin-7-yl)methyl)carbamate]
13 | > 100 | Cc1ccccc1-c1ccnc2cc(NC(C)C(=O)N3CCOCC3)ccc12 (single isomer, unassigned) [Example 51, 1-morpholino-2-((4-(o-tolyl)quinolin-7-yl)amino)propan-1-one]
14 | > 100 | Cc1ccccc1-c1ccnc2cc(NC(C)C(=O)N(C)C)ccc12 (single isomer, unassigned) [Example 48, N,N-dimethyl-2-((4-(o-tolyl)quinolin-7-yl)amino)propanamide]
15 | 26 | Cc1ccccc1-c1ccnc2cc(NC(C)C(=O)N(C)C)ccc12 (stereo not shown) [Example 47, N,N-dimethyl-2-((4-(o-tolyl)quinolin-7-yl)amino)propanamide]
16 | 24 | Cc1ccccc1-c1ccnc2cc(CN(C)S(C)(=O)=O)ccc12 [Example 32, N-methyl-N-((4-(o-tolyl)quinolin-7-yl)methyl)methanesulfonamide]
17 | > 100 | CC(=O)N1CCN(C(=O)Cc2ccc3c(-c4ccccc4C)ccnc3c2)CC1 [Example 40, 1-(4-acetylpiperazin-1-yl)-2-(4-(o-tolyl)quinolin-7-yl)ethan-1-one]
18 | 7 | Cc1ccccc1-c1ccnc2cc(N(C)C)ccc12 [Example 16, N,N-dimethyl-4-(o-tolyl)quinolin-7-amine]
19 | 29 | Cc1ccccc1-c1ccnc2cc(CNC(=O)C3CCCC3)ccc12 [Example 13, N-((4-(o-tolyl)quinolin-7-yl)methyl)cyclopentanecarboxamide]
20 | 72 | Cc1ccccc1-c1ccnc2cc(CNS(C)(=O)=O)ccc12 [Example 22, N-((4-(o-tolyl)quinolin-7-yl)methyl)methanesulfonamide]

Row | IC50 [µM] | SMILES
21 | 2 | Cc1ccccc1-c1ccnc2cc(NC(C)C(=O)N3CCOCC3)ccc12 (single isomer, unassigned) [Example 50, 1-morpholino-2-((4-(o-tolyl)quinolin-7-yl)amino)propan-1-one]
22 | 8 | Cc1ccccc1-c1ccnc2cc(NC(C)C(=O)N3CCOCC3)ccc12 (stereo not shown) [Example 46, 1-morpholino-2-((4-(o-tolyl)quinolin-7-yl)amino)propan-1-one]
23 | 3 | COC(=O)c1ccc2c(-c3ccccc3C)ccnc2c1 [Example 1, methyl 4-(o-tolyl)quinoline-7-carboxylate]
24 | > 100 | Cc1ccccc1-c1ccnc2cc(C(=O)N3CCN(C)CC3)ccc12 [Example 8, (4-methylpiperazin-1-yl)-[4-(o-tolyl)-7-quinolyl]methanone]
25 | 6 | COCCc1ccc2c(-c3ccccc3C)ccnc2c1 [Example 31, 7-(2-methoxyethyl)-4-(o-tolyl)quinoline]
26 | > 100 | Cc1ccccc1-c1ccnc2cc(CN3CCCC3=O)ccc12 [Example 25]
27 | 8 | COC(C)c1ccc2c(-c3ccccc3C)ccnc2c1 (stereo not shown) [Example 27, 7-(1-methoxyethyl)-4-(o-tolyl)quinoline]
28 | 50 | Cc1ccccc1-c1ccnc2cc(CO)ccc12 [Example 10, (4-(o-tolyl)quinolin-7-yl)methanol]
29 | 15 | Cc1ccccc1-c1ccnc2cc(CNC(=O)OC(C)(C)C)ccc12 [Example 12, tert-butyl ((4-(o-tolyl)quinolin-7-yl)methyl)carbamate]
30 | 26 | CNC(=O)c1ccc2c(-c3ccccc3C)ccnc2c1 [Example 3, N-methyl-4-(o-tolyl)quinoline-7-carboxamide]
31 | > 100 | Cc1ccccc1-c1ccnc2cc(C(N)=O)ccc12 [Example 2, 4-(o-tolyl)quinoline-7-carboxamide]
32 | > 100 | Cc1ccccc1-c1ccnc2cc(C(=O)N3CCOCC3)ccc12 [Example 7, morpholino-[4-(o-tolyl)-7-quinolyl]methanone]
33 | > 100 | CC(=O)N1CCN(C(=O)c2ccc3c(-c4ccccc4C)ccnc3c2)CC1 [Example 9, 1-(4-(4-(o-tolyl)quinoline-7-carbonyl)piperazin-1-yl)ethan-1-one]
34 | > 100 | Cc1ccccc1-c1ccnc2cc(CN3CCN(C)CC3)ccc12 [Example 28, 7-((4-methylpiperazin-1-yl)methyl)-4-(o-tolyl)quinoline]
35 | > 100 | CC(=O)N1CCN(Cc2ccc3c(-c4ccccc4C)ccnc3c2)CC1 [Example 21, 1-(4-((4-(o-tolyl)quinolin-7-yl)methyl)piperazin-1-yl)ethan-1-one]
36 | > 100 | Cc1ccccc1-c1ccnc2cc(CN3CCCC3)ccc12 [Example 26, 7-(pyrrolidin-1-ylmethyl)-4-(o-tolyl)quinoline]
37 | > 100 | Cc1ccccc1-c1ccnc2cc(NC(C)C(=O)N3CCCCC3)ccc12 (single isomer, unassigned) [Example 52, 1-(piperidin-1-yl)-2-((4-(o-tolyl)quinolin-7-yl)amino)propan-1-one]
38 | > 100 | Cc1ccccc1-c1ccnc2cc(C(=O)N(C)C)ccc12 [Example 4, N,N-dimethyl-4-(o-tolyl)quinoline-7-carboxamide]
39 | > 100 | Cc1ccccc1-c1ccnc2cc(C(C)OCC(=O)O)ccc12 (stereo not shown) [Example 54, 2-(1-(4-(o-tolyl)quinolin-7-yl)ethoxy)acetic acid]
40 | 37 | Cc1ccccc1-c1ccnc2cc(C(C)CC(=O)N(C)C)ccc12 (single isomer, unassigned) [Example 38, N,N-dimethyl-3-(4-(o-tolyl)quinolin-7-yl)butanamide]
